Data reported in article PMC12717099, “Peptidoglycan recruitment by a penicillin binding protein” (Nature Communications, 2025).

Key:
[1] = tested on: E. faecium D344SRF pCWR624Δpbp5_pbp5_V2; experiment: MIC by broth microdilution, pbp5_V2; format: cell-based, Enterococcus faecium; conditions: strain pbp5_V2 (N523A_Q627A); 37 °C, 20 h; n=3
Procedure: (§1) E. faecium strains were streaked fresh from −80 °C stored glycerol stocks onto brain heart infusion (BHI) agar plates and incubated for 18 h at 37 °C. Strains harboring the plasmid derivatives were grown under antibiotic pressure on agar plates containing kanamycin at 1500 µg/ml. A single colony was inoculated into BHI or BHI-kanamycin (1500 µg/ml) for overnight cultures (18 h).

[2] = tested on: E. faecium D344SRF pCWR624Δpbp5 (empty plasmid); experiment: MIC by broth microdilution, pCWR624Δpbp5; format: cell-based, Enterococcus faecium; conditions: strain pCWR624Δpbp5; 37 °C, 20 h; n=3
Procedure: The synthetic genes were purchased from GeneWiz (South Plainfield, NJ). The ribosome binding site sequence AGGAGG (Shine-Dalgarno), and a string of five A’s followed by the sequence […], that corresponds to the first 15 bp found in pbp5 from E. faecium C68 were added upstream of the START codon. The terminator sequence […] was added downstream of the STOP codon. BamHI restriction sites were added to the flanking 5′ and 3′ ends. The synthetic genes were inserted into the vector pCWR624Δpbp5. This vector was derived from pCWR624[10], in which the pbp5 gene from D366 was excised by digestion with BamHI followed by re-ligation of the vector, allowing subsequent insertion of modified synthetic pbp5s into the BamHI site downstream of ftsWEfm and psr from E. faecium C68[10]. The synthetic genes were inserted in a BamHI site located downstream of psr. The proper orientation was confirmed by PCR amplification using the forward primer OR_pbp5_FOR_1 (5′-[…]-3′) and the reverse primer OR_pbp5_REV_1 (5′-[…]-3′). Plasmids were sequence verified for the specific binding site mutations. The resulting constructions were electroporated into the natural pbp5(-) mutant E. faecium D344SRF with a selection on brain heart infusion agar (BHI) plates containing kanamycin (1500 µg/ml).
as §1
MIC determination was performed using a standard broth microdilution technique in duplicate from independent cultures. Overnight cultures were inoculated into 3 ml of BHI or BHI-kanamycin (1500 µg/ml) broth in a dilution of 1:100 and incubated until an OD600 of ~0.5 was reached. Cultures were diluted 1:1000 and inoculated into the 96-well plates with the corresponding antibiotics to be tested. Plates were incubated at 37 °C for 20 h and read by eye. […]

[3] = tested on: PBP5; experiment: Bocillin FL fluorescence polarization binding competition assay; design: species or system Enterococcus faecium; conditions: antibiotic fixed 60 μM, PBP5 3.6 µM, Bocillin FL 30 nM, 37 °C, n = 3
Procedure: The assays were performed in low-volume 384-well black polystyrene assay plate (Corning, 4511), using assay buffer (100 mM Na-phosphate pH 7.0, 0.01% Triton X-100) to prevent the adsorption of Bocillin FL (Invitrogen, B13233) to the plate. Bocillin FL was dissolved in DMSO and stored as a 1 mM stock in the −20 °C freezer. Fresh working stock of Bocillin FL was made each day for the assays by diluting the stock with the assay buffer for a final concentration of 30 nM. The final concentration of PBP5 for the assays was 3.6 µM. The antibiotic, either penicillin G, ceftaroline or ceftriaxone, was added to PBP5 before the reactions were initiated by the addition of Bocillin FL. The plate was sealed with ThermalSeal RT silicone adhesive film (EXCEL Scientific, TSS-RTQ-100) to prevent evaporation during the measurements. Reaction without PBP5 (Bocillin FL only) was used as negative control. All reactions were carried out at 37 °C in a CLARIOStar plate reader (BMG Labtech) equipped with the 482 nm excitation filter, 530 nm emission filter and a dichroic filter LP504. The focal height was adjusted to 11.3 mm and the gain was set to 10 mP using the negative control. Measurements were made at 40 s intervals for up to 75 min with 100 flashes per measurement. Three replicates were made for each treatment in each run, and the experiment was repeated 3 times.

[4] = tested on: PBP5:ceftaroline complex; experiment: 1D 1H STD NMR of SP2 with PBP5:ceftaroline; format: binding, Enterococcus faecium; conditions: for STD amplification factor: ceftaroline-saturated PBP5, 2 s saturation
Source text: Total saturation time for STD measurements was 2 s.
Overlapped peaks were completely excluded from the analysis.

Q: What does the source list for `CO/N=C(\C(=O)N[C@@H]1C(=O)N2C(C(=O)O)=C(CSc3nc(=O)c(=O)[nH]n3C)CS[C@H]12)c1csc(N)n1` [Ceftriaxone, ceftriaxone]?
A: MIC (µg/ml) [Range] [1]: 50 [50-100] µg/ml; MIC (µg/ml) [Range] [2]: 50 [25-100] µg/ml; binding/inhibition of PBP5, in words [3]: does not bind/inhibit PBP5; binding/inhibition of PBP5, in words ([3]; listed as ceftriaxone): does not bind

Q: What does the source list for D-Lac-L-Ala-D-iGln-L-Lys(D-iAsn) [SP2]?
A: STD amplification factor, ref to SP1 (fraction) ([4]; 1H DLacβ): 0.3324; STD, ref to SP1 (percent) ([4]; 1H DLacβ): 33.2419; STD amplification factor ([4]; 1H DLacβ): 8.945; STD amplification factor, ref to SP1 (fraction) ([4]; 1H DQ2β (first listed)): 0.6862; STD, ref to SP1 (percent) ([4]; 1H DQ2β (first listed)): 68.622; STD amplification factor ([4]; 1H DQ2β (first listed)): 18.4651; STD amplification factor, ref to SP1 (fraction) ([4]; 1H DQ2β (second listed)): 0.9243; STD, ref to SP1 (percent) ([4]; 1H DQ2β (second listed)): 92.4275; STD amplification factor ([4]; 1H DQ2β (second listed)): 24.8707; STD amplification factor, ref to SP1 (fraction) ([4]; 1H DQ2γ): 0.3051; STD, ref to SP1 (percent) ([4]; 1H DQ2γ): 30.515; STD amplification factor ([4]; 1H DQ2γ): 8.211; STD amplification factor, ref to SP1 (fraction) ([4]; 1H K3α): 0.5095; STD, ref to SP1 (percent) ([4]; 1H K3α): 50.9537; STD amplification factor ([4]; 1H K3α): 13.7108; STD amplification factor, ref to SP1 (fraction) ([4]; 1H K3β): 1.007; STD, ref to SP1 (percent) ([4]; 1H K3β): 100.738; STD amplification factor ([4]; 1H K3β): 27.1069; STD amplification factor, ref to SP1 (fraction) ([4]; 1H K3γ): 0.5588; STD, ref to SP1 (percent) ([4]; 1H K3γ): 55.8765; STD amplification factor ([4]; 1H K3γ): 15.0355; STD amplification factor, ref to SP1 (fraction) ([4]; 1H K3δ): 0.7209; STD, ref to SP1 (percent) ([4]; 1H K3δ): 72.0884; STD amplification factor ([4]; 1H K3δ): 19.3978; STD amplification factor, ref to SP1 (fraction) ([4]; 1H K3ε): 0.1435; STD, ref to SP1 (percent) ([4]; 1H K3ε): 14.3544; STD amplification factor ([4]; 1H K3ε): 3.863; STD amplification factor, ref to SP1 (fraction) ([4]; 1H LA1α): 0.3824; STD, ref to SP1 (percent) ([4]; 1H LA1α): 38.2438; STD amplification factor ([4]; 1H LA1α): 10.2908; STD amplification factor, ref to SP1 (fraction) ([4]; 1H LA1β): 0.3611; STD, ref to SP1 (percent) ([4]; 1H LA1β): 36.1111; STD amplification factor ([4]; 1H LA1β): 9.717; STD amplification factor, ref to SP1 (fraction) ([4]; 1H iNα,DQ2α): 0.2432; STD, ref to SP1 (percent) ([4]; 1H iNα,DQ2α): 24.3189; STD amplification factor ([4]; 1H iNα,DQ2α): 6.544; STD amplification factor, ref to SP1 (fraction) ([4]; 1H iNβ): 0.3137; STD, ref to SP1 (percent) ([4]; 1H iNβ): 31.3676; STD amplification factor ([4]; 1H iNβ): 8.441
